Tested on: HDAC
Experiment: HDAC Activity Assay Kit on nuclear extracts of treated C6 glioma cells
Assay type: cell-based, rat
Conditions: nuclear protein of C6 cells treated 24 hours, fluorometric substrate
Description: The C6 glioma cells were treated with different doses of NBM-HD-1 and sodium butyrate (SB). After 24 hours, the cells were harvested to extract the nuclear proteins by NucBuster™ Protein Extraction Kit (Novagen) as described by the manufacturer's instructions. These extracts were then used in HDAC Activity Assay Kit (Calbiochem) to analyze their HDAC (histone deacetylase) inhibition activities. The HDAC fluorometric substrate, which comprises an acetylated lysine side chain, was incubated with extracted nuclear protein first. Deacetylation of the substrate sensitized the substrate, so that, in the second step, treatment with the Lysine Developer produced a fluorophore. The fluorophore can easily be analyzed by using a fluorescence plate reader. […] Inhibition of HDAC has been implicated in the induction of differentiation in cancer cells. In this experiment, a well-known compound for HDAC inhibition, sodium butyrate, was used as a positive control.

Compound: COc1cc2c(c(OC)c1CCC(C)(C)O)C(=O)C[C@@H](c1ccc(OC)c(OC)c1C/C=C(\C)CCCC(C)(C)O)O2 [NBM-HD-1]
- HDAC activity: significantly inhibits HDAC activity

From patent US20090076130A1, “COMPOUNDS FOR THE INHIBITION OF HISTONE DEACETYLASE” (NATUREWISE BIOTECH & MEDICALS CORPORATION, priority 2007, published 2009)
